From patent US9637491B2, “Pyrazolo[4,3-D]pyrimidines as kinase inhibitors” (Origenis GmbH, priority 2012, dated 2017)

Biological target: T1, SYK kinase (Homo sapiens, UniProt P43405)
T1 construct: purchased Invitrogen, Carlsbad
Assay: SYK assay (OMNIA Kinase Assay, Invitrogen)
Type: biochemical
Conditions: SYK Activities; 1 mM ATP, 10 μM Omnia Peptide Substrate Tyr 7, 30° C.
In short: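 SYK was added last to start phosphorylation of a chelation-enhanced SOX peptide substrate (10 μM) in the presence of 1 mM ATP and 0.2 mM DTT at 30° C. Kinetic readings at λex 360/λem 485 nm over 30 min gave velocities, fitted sigmoidally against compound concentration to give IC50.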

Row | SMILES | IC50
1 | O=C1CSc2ccc(Nc3nc(-c4ccc5cn[nH]c5c4)nc4cn[nH]c34)cc2N1 [Example 520, 6-((5-(1H-indazol-6-yl)-1H-pyrazolo[4,3-d]pyrimidin-7-yl)amino)-2H-benzo[b][1,4]thiazin-3(4H)-one] | 100 to 1000 nM
2 | CC(C)(C)OC(=O)N1CCC(n2cc(Nc3nc(-c4ccco4)nc4cn[nH]c34)cn2)C1 (stereo not shown) [Example 453, tert-butyl 3-(4-((5-(furan-2-yl)-1H-pyrazolo[4,3-d]pyrimidin-7-yl)amino)-1H-pyrazol-1-yl)pyrrolidine-1-carboxylate] | 100 to 1000 nM
3 | CC(C)(C#N)c1ccc(Nc2nc(-c3c(F)cccc3F)nc3cn[nH]c23)cc1 [Example 28, 2-(4-((5-(2,6-difluorophenyl)-1H-pyrazolo[4,3-d]pyrimidin-7-yl)amino)phenyl)-2-methylpropanenitrile] | 100 to 1000 nM
4 | COc1cc(Nc2nc(-c3cccc(NS(C)(=O)=O)c3)nc3cn[nH]c23)ccc1N1CCOCC1 [Example 41, N-(3-(7-((3-methoxy-4-morpholinophenyl)amino)-1H-pyrazolo[4,3-d]pyrimidin-5-yl)phenyl)methanesulfonamide] | 100 to 1000 nM
5 | CC(C)(C#N)n1cc(Nc2nc(-c3ccoc3)nc3cn[nH]c23)cn1 [Example 203, 2-(4-((5-(furan-3-yl)-1H-pyrazolo[4,3-d]pyrimidin-7-yl)amino)-1H-pyrazol-1-yl)-2-methylpropanenitrile] | 100 to 1000 nM
6 | CC(c1ccccc1)n1cc(Nc2nc(-c3ccc4cn[nH]c4c3)nc3cn[nH]c23)cn1 (stereo not shown) [Example 477, 5-(1H-indazol-6-yl)-N-(1-(1-phenylethyl)-1H-pyrazol-4-yl)-1H-pyrazolo[4,3-d]pyrimidin-7-amine] | 100 to 1000 nM
7 | CC(=O)N1CCN(c2ccc(Nc3nc(-c4ccccc4F)nc4cn[nH]c34)cc2)CC1 [Example 26, 1-(4-(4-((5-(2-fluorophenyl)-1H-pyrazolo[4,3-d]pyrimidin-7-yl)amino)phenyl)piperazin-1-yl)ethan-1-one] | 100 to 1000 nM
8 | Cc1nn(C(C)C)cc1Nc1nc(-c2ccoc2)nc2cn[nH]c12 [Example 292, 5-(furan-3-yl)-N-(1-isopropyl-3-methyl-1H-pyrazol-4-yl)-1H-pyrazolo[4,3-d]pyrimidin-7-amine] | 100 to 1000 nM
9 | CC(C)n1cc(Nc2nc(-c3cccc(NS(C)(=O)=O)c3)nc3cn[nH]c23)cn1 [Example 259, N-(3-(7-((1-isopropyl-1H-pyrazol-4-yl)amino)-1H-pyrazolo[4,3-d]pyrimidin-5-yl)phenyl)methanesulfonamide] | 10 to 100 nM
10 | OC1CCN(c2ccc(Nc3nc(-c4ccoc4)nc4cn[nH]c34)cc2)CC1 [Example 443, 1-(4-((5-(furan-3-yl)-1H-pyrazolo[4,3-d]pyrimidin-7-yl)amino)phenyl)piperidin-4-ol] | 10 to 100 nM
11 | CC(=O)N1CCN(c2ccc(Nc3nc(-c4ccno4)nc4cn[nH]c34)cc2)CC1 [Example 67, 1-(4-(4-((5-(isoxazol-5-yl)-1H-pyrazolo[4,3-d]pyrimidin-7-yl)amino)phenyl)piperazin-1-yl)ethan-1-one] | 100 to 1000 nM
12 | CC(=O)N1CCN(c2ccc(Nc3nc(-c4ccco4)nc4cn[nH]c34)cc2)CC1 [Example 111, 1-(4-(4-((5-(furan-2-yl)-1H-pyrazolo[4,3-d]pyrimidin-7-yl)amino)phenyl)piperazin-1-yl)ethan-1-one] | 10 to 100 nM
13 | CN1C(=O)COc2ccc(Nc3nc(C4CC4)nc4cn[nH]c34)cc21 [Example 497, 6-((5-cyclopropyl-1H-pyrazolo[4,3-d]pyrimidin-7-yl)amino)-4-methyl-2H-benzo[b][1,4]oxazin-3(4H)-one] | 100 to 1000 nM
14 | c1cc(-c2nc(Nc3ccc(N4CCOCC4)cc3)c3[nH]ncc3n2)no1 [Example 74, 5-(isoxazol-3-yl)-N-(4-morpholinophenyl)-1H-pyrazolo[4,3-d]pyrimidin-7-amine] | 100 to 1000 nM
15 | CN1CCC(n2cc(Nc3nc(C4CC4)nc4cn[nH]c34)cn2)CC1 [Example 207, 5-cyclopropyl-N-(1-(1-methylpiperidin-4-yl)-1H-pyrazol-4-yl)-1H-pyrazolo[4,3-d]pyrimidin-7-amine] | 10 to 100 nM
16 | Nc1ccccc1-c1nc(Nc2cnn(C3CCOCC3)c2)c2n[nH]cc2n1 [Example 531, 5-(2-aminophenyl)-N-(1-(tetrahydro-2H-pyran-4-yl)-1H-pyrazol-4-yl)-2H-pyrazolo[4,3-d]pyrimidin-7-amine] | 100 to 1000 nM
17 | OCCN1CCN(c2ccc(Nc3nc(-c4ccoc4)nc4cn[nH]c34)cc2)CC1 [Example 442, 2-(4-(4-((5-(furan-3-yl)-1H-pyrazolo[4,3-d]pyrimidin-7-yl)amino)phenyl)piperazin-1-yl)ethan-1-ol] | 10 to 100 nM
18 | CCN1C(=O)COc2ccc(Nc3nc(-c4ccoc4)nc4cn[nH]c34)cc21 [Example 485, 4-ethyl-6-((5-(furan-3-yl)-1H-pyrazolo[4,3-d]pyrimidin-7-yl)amino)-2H-benzo[b][1,4]oxazin-3(4H)-one] | 100 to 1000 nM
19 | CC(C)(C#N)n1cc(Nc2nc(C3CCC3)nc3cn[nH]c23)cn1 [Example 225, 2-(4-((5-cyclobutyl-1H-pyrazolo[4,3-d]pyrimidin-7-yl)amino)-1H-pyrazol-1-yl)-2-methylpropanenitrile] | 100 to 1000 nM
20 | COc1ccc(Nc2nc(-c3c(F)cccc3F)nc3cn[nH]c23)cc1NC(C)=O [Example 523, N-(5-((5-(2,6-difluorophenyl)-1H-pyrazolo[4,3-d]pyrimidin-7-yl)amino)-2-methoxyphenyl)acetamide] | 100 to 1000 nM
21 | CC(C)Cn1cc(-c2nc(Nc3ccc(N4CCOCC4)cc3)c3[nH]ncc3n2)cn1 [Example 383, 5-(1-isobutyl-1H-pyrazol-4-yl)-N-(4-morpholinophenyl)-1H-pyrazolo[4,3-d]pyrimidin-7-amine] | 100 to 1000 nM
22 | CC(C)n1cc(Nc2nc(-c3ncco3)nc3cn[nH]c23)cn1 [Example 250, N-(1-isopropyl-1H-pyrazol-4-yl)-5-(oxazol-2-yl)-1H-pyrazolo[4,3-d]pyrimidin-7-amine] | 100 to 1000 nM
23 | c1nc(-c2nc(Nc3cnn(C4CCOCC4)c3)c3[nH]ncc3n2)co1 [Example 127, 5-(oxazol-4-yl)-N-(1-(tetrahydro-2H-pyran-4-yl)-1H-pyrazol-4-yl)-1H-pyrazolo[4,3-d]pyrimidin-7-amine] | 100 to 1000 nM
24 | CC(C)(O)Cn1cc(Nc2nc(-c3ccco3)nc3cn[nH]c23)cn1 [Example 451, 1-(4-((5-(furan-2-yl)-1H-pyrazolo[4,3-d]pyrimidin-7-yl)amino)-1H-pyrazol-1-yl)-2-methylpropan-2-ol] | 10 to 100 nM

The remaining lines, values ahead:

Row | IC50 | SMILES
25 | 10 to 100 nM | COCCCn1cc(Nc2nc(-c3cccc(NS(C)(=O)=O)c3)nc3cn[nH]c23)cn1 [Example 260, N-(3-(7-((1-(3-methoxypropyl)-1H-pyrazol-4-yl)amino)-1H-pyrazolo[4,3-d]pyrimidin-5-yl)phenyl)methanesulfonamide]
26 | 10 to 100 nM | Cc1ccsc1-c1nc(Nc2ccc(N3CCOCC3)cc2)c2[nH]ncc2n1 [Example 52, 5-(3-methylthiophen-2-yl)-N-(4-morpholinophenyl)-1H-pyrazolo[4,3-d]pyrimidin-7-amine]
27 | < 10 nM | N#CCn1cc(Nc2nc(-c3ccoc3)nc3cn[nH]c23)cn1 [Example 241, 2-(4-((5-(furan-3-yl)-1H-pyrazolo[4,3-d]pyrimidin-7-yl)amino)-1H-pyrazol-1-yl)acetonitrile]
28 | < 10 nM | c1nn(C2CCNC2)cc1Nc1nc(-c2ccc3cn[nH]c3c2)nc2cn[nH]c12 (stereo not shown) [Example 447, 5-(1H-indazol-6-yl)-N-(1-(pyrrolidin-3-yl)-1H-pyrazol-4-yl)-1H-pyrazolo[4,3-d]pyrimidin-7-amine]
29 | < 10 nM | FCCn1cc(Nc2nc(-c3ccc4cn[nH]c4c3)nc3cn[nH]c23)cn1 [Example 417, N-(1-(2-fluoroethyl)-1H-pyrazol-4-yl)-5-(1H-indazol-6-yl)-1H-pyrazolo[4,3-d]pyrimidin-7-amine]
30 | 10 to 100 nM | COCCn1cc(Nc2nc(-c3ccco3)nc3cn[nH]c23)cn1 [Example 195, 5-(furan-2-yl)-N-(1-(2-methoxyethyl)-1H-pyrazol-4-yl)-1H-pyrazolo[4,3-d]pyrimidin-7-amine]
31 | 10 to 100 nM | CC(C)Cn1cc(Nc2nc(-c3ccoc3)nc3cn[nH]c23)cn1 [Example 240, 5-(furan-3-yl)-N-(1-isobutyl-1H-pyrazol-4-yl)-1H-pyrazolo[4,3-d]pyrimidin-7-amine]
32 | 10 to 100 nM | CC(C)n1cc(Nc2nc(C(C)(C)C)nc3cn[nH]c23)cn1 [Example 269, 5-(tert-butyl)-N-(1-isopropyl-1H-pyrazol-4-yl)-1H-pyrazolo[4,3-d]pyrimidin-7-amine]
33 | 10 to 100 nM | c1nn(C2CCOCC2)cc1Nc1nc(-c2nc3c(s2)CCCC3)nc2cn[nH]c12 [Example 496, N-(1-(tetrahydro-2H-pyran-4-yl)-1H-pyrazol-4-yl)-5-(4,5,6,7-tetrahydrobenzo[d]thiazol-2-yl)-1H-pyrazolo[4,3-d]pyrimidin-7-amine]
34 | 10 to 100 nM | c1cncc(-c2cccc(-c3nc(Nc4cnn(C5CCNC5)c4)c4[nH]ncc4n3)c2)c1 (stereo not shown) [Example 465, 5-(3-(pyridin-3-yl)phenyl)-N-(1-(pyrrolidin-3-yl)-1H-pyrazol-4-yl)-1H-pyrazolo[4,3-d]pyrimidin-7-amine]
35 | 10 to 100 nM | c1nn(C2CCOCC2)cc1Nc1nc(-c2ccc3[nH]ncc3c2)nc2cn[nH]c12 [Example 178, 5-(1H-indazol-5-yl)-N-(1-(tetrahydro-2H-pyran-4-yl)-1H-pyrazol-4-yl)-1H-pyrazolo[4,3-d]pyrimidin-7-amine]
36 | < 10 nM | c1cc(-c2nc(Nc3cnn(C4CCOCC4)c3)c3[nH]ncc3n2)co1 [Example 146, 5-(furan-3-yl)-N-(1-(tetrahydro-2H-pyran-4-yl)-1H-pyrazol-4-yl)-1H-pyrazolo[4,3-d]pyrimidin-7-amine]
37 | < 10 nM | COc1cc(Nc2nc(-c3ccc4cn[nH]c4c3)nc3cn[nH]c23)ccc1N1CCOCC1 [Example 54, 5-(1H-indazol-6-yl)-N-(3-methoxy-4-morpholinophenyl)-1H-pyrazolo[4,3-d]pyrimidin-7-amine]
